US20250263390A1, “NOVEL SUBSTITUTED 6,7-DIHYDRO-5H-BENZO[7]ANNULENE COMPOUNDS AND THEIR DERIVATIVES, PROCESSES FOR THEIR PREPARATION AND THERAPEUTIC USES THEREOF” (SANOFI, priority 2022, published 2025)

Molecular target: T1, ERα (Homo sapiens, UniProt P03372)
T1 construct: host or cells: MCF7
T1 sequence (P03372 1-595): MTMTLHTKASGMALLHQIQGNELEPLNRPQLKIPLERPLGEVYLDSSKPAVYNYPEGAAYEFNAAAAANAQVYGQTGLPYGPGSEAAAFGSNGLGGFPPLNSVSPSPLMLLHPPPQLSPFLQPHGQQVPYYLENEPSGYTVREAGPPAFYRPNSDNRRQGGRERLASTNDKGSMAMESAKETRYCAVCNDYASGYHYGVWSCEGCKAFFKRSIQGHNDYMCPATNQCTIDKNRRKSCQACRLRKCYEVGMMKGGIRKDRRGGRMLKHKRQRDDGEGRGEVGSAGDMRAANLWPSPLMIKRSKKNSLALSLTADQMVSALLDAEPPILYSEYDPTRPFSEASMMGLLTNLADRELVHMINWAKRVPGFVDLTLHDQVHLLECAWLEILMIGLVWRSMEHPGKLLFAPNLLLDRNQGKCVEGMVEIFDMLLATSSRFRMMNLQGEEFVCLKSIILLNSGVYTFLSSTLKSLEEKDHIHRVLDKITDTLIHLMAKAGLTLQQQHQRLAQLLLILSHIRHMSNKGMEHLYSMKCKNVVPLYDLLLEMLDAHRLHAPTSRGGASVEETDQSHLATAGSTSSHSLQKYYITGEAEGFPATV
Test: Estrogen receptor degradation activity: breast cancer cell ERα in cell western assay
Assay type: cell-based
Conditions: MCF7 cells, 4 hours, relative to fulvestrant 0.1 μM positive control
Summary of the method: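 MCF7 cells in phenol red-free medium with 5% charcoal-stripped FBS, 4 h exposure to 9-point 1:5 dilutions (final 0.3–0.0000018 μM). ERα immunostained in fixed cells and normalised to DNA dye; % decrease scaled between DMSO and 0.1 μM fulvestrant, IC50 reported in nM.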

`Cc1c(O)cccc1C1=C(c2ccc(CC3CN(CCCF)C3)cc2)c2ccc(C(=O)O)cc2CCC1.Cl` [Compound 61, 9-(4-((1-(3-fluoropropyl)azetidin-3-yl)methyl)phenyl)-8-(3-hydroxy-2-methylphenyl)-6,7-dihydro-5H-benzo[7]annulene-3-carboxylic acid, hydrochloride] was tested. Which “% Degradation At 0.3 μM” value did it give?
Its value is 90%.

With `CC(F)(F)c1cc(F)ccc1C1=C(c2ccc(CC3CN(CCCF)C3)cc2)c2ccc(C(=O)O)cc2CCC1` [Compound 62, 8-(2-(1,1-difluoroethyl)-4-fluorophenyl)-9-(4-((1-(3-fluoropropyl)azetidin-3-yl)methyl)phenyl)-6,7-dihydro-5H-benzo[7]annulene-3-carboxylic acid] as the compound, how does the “% Degradation At 0.3 μM” value read?
Its value is 95%.

For `COc1cccc(C(F)(F)F)c1C1=C(c2ccc(CC3CN(CCCF)C3)cc2)c2ccc(C(=O)O)cc2CCC1` [Compound 63, 9-(4-((1-(3-fluoropropyl)azetidin-3-yl)methyl)phenyl)-8-(2-methoxy-6-(trifluoromethyl)phenyl)-6,7-dihydro-5H-benzo[7]annulene-3-carboxylic acid], which “% Degradation At 0.3 μM” value is on record?
The value was 90%.

How did the “% Degradation At 0.3 μM” value turn out when `Cc1c(C2=C(c3ccc(CC4CN(CCCF)C4)cc3)c3ccc(C(=O)O)cc3CCC2)ccc(C(F)(F)F)c1F.Cl` [Compound 64, 8-(3-fluoro-2-methyl-4-(trifluoromethyl)phenyl)-9-(4-((1-(3-fluoropropyl)azetidin-3-yl)methyl)phenyl)-6,7-dihydro-5H-benzo[7]annulene-3-carboxylic acid, hydrochloride] was run?
Its value is 100%.

How did the “% Degradation At 0.3 μM” value turn out when `COc1c(F)ccc(C)c1C1=C(c2ccc(CC3CN(CCCF)C3)cc2)c2ccc(C(=O)O)cc2CCC1` [Compound 65, 8-(3-fluoro-2-methoxy-6-methylphenyl)-9-(4-((1-(3-fluoropropyl)azetidin-3-yl)methyl)phenyl)-6,7-dihydro-5H-benzo[7]annulene-3-carboxylic acid] was run?
Its value is 100%.

With `Cc1cccc(C(F)F)c1C1=C(c2ccc(CC3CN(CCCF)C3)cc2)c2ccc(C(=O)O)cc2CCC1` [Compound 66, 8-(2-(difluoromethyl)-6-methylphenyl)-9-(4-((1-(3-fluoropropyl)azetidin-3-yl)methyl)phenyl)-6,7-dihydro-5H-benzo[7]annulene-3-carboxylic acid] as the compound, how does the “% Degradation At 0.3 μM” value read?
Its value is 90%.

Which “% Degradation At 0.3 μM” value does the source give for `CCc1c(C2=C(c3ccc(CC4CN(CCCF)C4)cc3)c3ccc(C(=O)O)cc3CCC2)cccc1C(F)(F)F` [Compound 67, 8-(2-ethyl-3-(trifluoromethyl)phenyl)-9-(4-((1-(3-fluoropropyl)azetidin-3-yl)methyl)phenyl)-6,7-dihydro-5H-benzo[7]annulene-3-carboxylic acid] here?
The value was 93%.

`CCc1cccc(C2=C(c3ccc(CC4CN(CCCF)C4)cc3)c3ccc(C(=O)O)cc3CCC2)c1C(F)(F)F` [Compound 68, 8-(3-ethyl-2-(trifluoromethyl)phenyl)-9-(4-((1-(3-fluoropropyl)azetidin-3-yl)methyl)phenyl)-6,7-dihydro-5H-benzo[7]annulene-3-carboxylic acid] was tested. Which “% Degradation At 0.3 μM” value did it give?
Its value is 92%.

Which “% Degradation At 0.3 μM” value does the source give for `CCc1cc(C(F)(F)F)ccc1C1=C(c2ccc(CC3CN(CCCF)C3)cc2)c2ccc(C(=O)O)cc2CCC1` [Compound 69, 8-(2-ethyl-4-(trifluoromethyl)phenyl)-9-(4-((1-(3-fluoropropyl)azetidin-3-yl)methyl)phenyl)-6,7-dihydro-5H-benzo[7]annulene-3-carboxylic acid] here?
Its value is 91%.

For `CCc1ccc(C2=C(c3ccc(CC4CN(CCCF)C4)cc3)c3ccc(C(=O)O)cc3CCC2)c(C(F)(F)F)c1` [Compound 70, 8-(4-ethyl-2-(trifluoromethyl)phenyl)-9-(4-((1-(3-fluoropropyl)azetidin-3-yl)methyl)phenyl)-6,7-dihydro-5H-benzo[7]annulene-3-carboxylic acid], which “% Degradation At 0.3 μM” value is on record?
Its value is 92%.

With `COc1ccc(C2=C(c3ccc(CC4CN(CCCF)C4)cc3)c3ccc(C(=O)O)cc3CCC2)cc1OC` [Compound 71, 8-(3,4-dimethoxyphenyl)-9-(4-((1-(3-fluoropropyl)azetidin-3-yl)methyl)phenyl)-6,7-dihydro-5H-benzo[7]annulene-3-carboxylic acid] as the compound, how does the “% Degradation At 0.3 μM” value read?
The value was 96%.

With `COc1cc(C)cc(C)c1C1=C(c2ccc(CC3CN(CCCF)C3)cc2)c2ccc(C(=O)O)cc2CCC1` [Compound 72, 9-(4-((1-(3-fluoropropyl)azetidin-3-yl)methyl)phenyl)-8-(2-methoxy-4,6-dimethylphenyl)-6,7-dihydro-5H-benzo[7]annulene-3-carboxylic acid] as the compound, how does the “% Degradation At 0.3 μM” value read?
Its value is 91%.

How did the “% Degradation At 0.3 μM” value turn out when `Cc1ccc(F)c(C)c1C1=C(c2ccc(CC3CN(CCCF)C3)cc2)c2ccc(C(=O)O)cc2CCC1` [Compound 73, 8-(3-fluoro-2,6-dimethylphenyl)-9-(4-((1-(3-fluoropropyl)azetidin-3-yl)methyl)phenyl)-6,7-dihydro-5H-benzo[7]annulene-3-carboxylic acid] was run?
The value was 84%.
